In brackets after ≈: the same amount, converted by molar mass.
Key:
[1] = Clinical study, dose response and absolute bioavailability: plasma cladribine after oral doses vs intravenous infusion; type: in vivo, human (patients with MS); details: n = 26; for AUC(0-inf) / AUC(0-t) / Cmax / Tmax / half-life: human, plasma; for AUC(0-inf) / AUC(0-t) / Cmax: Geom Mean; for Tmax / half-life: Mean ± SD
Excerpt: The objective of this study was to assess the systemic availability of cladribine after oral administration in two different fixed oral doses, in comparison with one fixed intravenous administration (reference formulation) in patients with MS (multiple sclerosis), and to evaluate the safety and tolerability of cladribine in this population.
This study was a 3 center, open-label, randomized, 3-way crossover single dose study using twenty-six patients with MS. […] The three treatment days were separated by a drug-free interval of at least 5 days. In each treatment period blood samples were collected over a 24-hour period for evaluation of plasma cladribine.
The plasma concentrations of cladribine were measured by a HPLC/MS/MS method. […] The limit of quantification was 100 pg/ml. Analysis of samples was carried out in 16 runs. Except the first run (which had to be rejected because of equipment failure), all other runs could be accepted. No calibrator had to be excluded from fitting of the calibration curve and accuracy of each quality control sample met the GLP requirements.
858 clinical plasma samples were analyzed and concentration values of cladribine were determined. The results were compiled and are summarized in the tables below [TABLES VII through X]. In these tables, the following definitions are applicable: Tmax is the time to reach maximum concentration in the plasma; T1/2 is the half-life of cladribine in the plasma; Cmax is the maximum concentration of cladribine in the plasma; AUCinf is the area under the curve for the measured data from zero extrapolated to infinity; AUCt is the area under the curve for the measured data (from zero to the last time point); Geom Mean is the geometric mean; CV is the coefficient of variation (relative standard deviation); LL is the lower limit; UL is the upper limit; σ^2 is the mean variance; σB^2 is the mean variance between subjects; σW^2 is the mean variance within subjects; CVT is the total coefficient of variation; and CVW is the coefficient of variation within subjects.

[2] = Phase solubility study of cladribine in HPβCD solutions; type: physicochemical; details: aqueous hydroxypropyl-β-cyclodextrin (HPβCD) solution, aqueous with cosolvent or surfactant or cyclodextrin, thermodynamic from solid; with about 0.14 mole of HPβCD; complexation conditions of EXAMPLE 2; read-out: cladribine maintained dissolved (phase solubility)
Experimental: Generally, the complexation is conducted with heating, for example at about 45 to about 60° C. for a significant period of time, e.g., at least 6-9 hours; it is believed that even better results can be obtained by heating at up to about 80° C. for up to 24 hours. Excess precipitated cladribine is then removed and the cladribine concentration is subsequently measured. This concentration represents the amount of cladribine solubilized for a given amorphous cyclodextrin concentration. […] Consequently, the data points correspond to the amount of cladribine dissolved in aqueous HPβCD or other amorphous cyclodextrin under the selected conditions; when later lyophilized, the solution yields a complex cladribine-cyclodextrin complex which is an intimate amorphous admixture of (a) an amorphous inclusion complex of cladribine with an amorphous cyclodextrin and (b) amorphous free cladribine associated with amorphous cyclodextrin as a non-inclusion complex. If equilibrium conditions are reached during the complexation, the amorphous cladribine-cyclodextrin complex will be saturated with cladribine.
A phase solubility study can be carried out as follows. […] The excess, undissolved cladribine is removed by filtration. […] This process is repeated with different known concentrations of HPβCD until several data points are obtained. […]

[3] = Clinical study, relative bioavailability: plasma cladribine after oral formulations vs subcutaneous administration; type: in vivo, human (patients with MS); details: human, sc, 3.0 mg subcutaneous, single dose, n = 12
Experimental: This study was a 2 center, open-label, randomized, 4-way crossover single dose study using twelve patients with MS. Patients received randomly three different fixed oral doses (3.0 mg) and a fixed subcutaneous dose of 3.0 mg. The four treatment days were separated by a drug-free interval of at least 5 days. In each treatment period, blood samples were collected over a 24-hour period for evaluation of plasma cladribine.
The plasma concentration of cladribine was measured by a HPLC/MS/MS method. […] The limit of quantification was 100 pg/ml. Analysis of samples was carried out in 16 runs.
576 clinical plasma samples were analyzed and concentration values of cladribine were determined.

[4] = Oral Administration 10.0 mg vs 3.0 mg IV, dose normalized
[5] = Oral Administration 30.0 mg vs 3.0 mg IV, dose normalized
[6] = Oral Administration 3.0 mg (Batch N0120 3.0 mg tablets)
[7] = Oral Administration 10.0 mg (Batch N0126 10.0 mg tablets)

## Nc1nc(Cl)nc2c1ncn2[C@H]1C[C@H](O)[C@@H](CO)O1 [Cladribine, 2-chloro-2′-deoxyadenosine]
[1]; [4]
  Ratio of Oral to I.V. AUCinf: 39.1
  Ratio of Oral to I.V. AUCt: 39.4
[1]; [5]
  Ratio of Oral to I.V. AUCinf: 34.5
  Ratio of Oral to I.V. AUCt: 34.0
[1]; dose-adjusted PK parameter
  CVT (total coefficient of variation) of AUCinf: 29.2%
  CVT (total coefficient of variation) of AUCt: 29.8%
  CVT (total coefficient of variation) of Cmax: 43.0%
  CVW (coefficient of variation within subjects) of AUCinf: 18.3%
  CVW (coefficient of variation within subjects) of AUCt: 19.1%
  CVW (coefficient of variation within subjects) of Cmax: 37.5%
[1]; 3.0 mg IV infusion (1 hour)
  AUC(0-inf): 58.5 ng·h/mL
  AUC(0-t): 56.4 ng·h/mL
  Cmax: 21.4 ng/mL
  Tmax: 0.817 ± 0.397 h
  half-life: 6.5 ± 1.27 h
[1]; [6]
  AUC(0-inf): 20.2 ng·h/mL
  AUC(0-t): 19.2 ng·h/mL
  Cmax: 5.61 ng/mL
  Tmax: 0.548 ± 0.3 h
  half-life: 5.85 ± 1.18 h
[1]; [7]
  AUC(0-inf): 76.7 ng·h/mL
  AUC(0-t): 74.5 ng·h/mL
  Cmax: 21.2 ng/mL
  Tmax: 0.558 ± 0.204 h
  half-life: 5.6 ± 0.75 h
[1]; oral doses, dose normalized
  Ratio 10.0 mg/3.0 mg AUCinf: 113.3
  Ratio 10.0 mg/3.0 mg AUCt: 115.8
  Ratio 10.0 mg/3.0 mg Cmax: 112.6
[2]
  solubility: ~49 mM (≈ 14 mg/mL)
[3]; Geom Mean
  AUC(0-inf): 57.3 ng·h/mL
  AUC(0-t): 54.7 ng·h/mL
  Cmax: 23.2 ng/mL
[3]; Mean ± SD
  Tmax: 0.313 ± 0.113 h
  half-life: 6.69 ± 2.01 h
